Experimental data published in patent US8653242B2, “Therapeutic antibodies against flagellated Pseudomonas aeruginosa” (priority 2010, dated 2014).
In brackets after ≈: the same amount, converted by molar mass. Read-outs that look alike come from different tables or passages of the source.

How the values were obtained:
[1] = tested on: Ka02 multi-drug resistant P. Aeruginosa strain; assay: Antibiogram of Ka02 (Vitek MIC); assay type: cell-based; design: MIC site #2: unit not given here; conditions: for Vitek (sensitive/resistant call): calls of the two sites; for MIC: Pseudomonas aeruginosa; on Final (sensitive/resistant call): key: S = antibiotic sensitive; R = antibiotic resistance
Ka02 (MDR P. aeruginosa) = assay: Mouse model of pneumonia driven by Ka02; assay type: in vivo, C57 Black mice; conditions: for Animal survival at day 3: Ka02 lung infection, treatment from 1 hr post-infection; for Animal survival at day 3 / survivors at day 3: unchanged at day 9; for survivors at day 3: survivors/animals in group
Method: Sixty-one (61) male Adult C57 Black mice (25-30 g, Harlan Nossan, Milan, Italy) were housed in a controlled environment in cages with filter tops in specific pathogen-free conditions. They were briefly anesthetized with inhaled sevorane (Abbot Laboratories) in an oxygenated chamber and placed in a supine position with their heads elevated approximately 30°. Ka02 bacterial inoculums (10^6 cfu's in 50 μl of lactated Ringer's solution) were instilled slowly into the left lung of each animal using a gavage needle.
Mice were randomly divided into 3 experimental treatment groups as follows:
a) Saline-Treated (n=20): saline administered i.v. 1 hr after infection followed by one further i.p. administration at 5 hr post-infection; b) LST-002-Treated (n=21): LST-002 given i.v. 1 hr after infection at a dose of 20 mg/kg followed by one further i.p. administration at 5 hr post-infection at a dose of 15 mg/kg; c) Positive control-Imipenem-Treated (n=20): “Tienam” (Merck, Sharpe and Dohme)] (active ingredient, imipenem, a carbapenem antibiotic) given i.p. 1 hr after infection at a dose of 25 mg/kg followed by further i.p. administrations at 25 mg/kg at time points of 5 hr, 24 hr, 29 hr, 48 hr and 53 hr following infection.
Survival was monitored for all groups every 12 hrs until day 9 post-infection and data depicted in Kaplan-Meier curves (FIG. 18). […] Survival at day 9 was unchanged from survival data observed at day 3, i.e. LST-002 was 240% more efficacious in increasing survival in mice with pneumonia than a currently accepted treatment protocol and increased survival by 700% as compared with untreated mice.

[2] = single i.v. injection at 10 mg/kg; preliminary
[3] = tested on: MDR P. aeruginosa strain Ka02; assay: "Sandwich" motility assay, Ka02; assay type: cell-based; conditions: LST-002 0.3-80 μg/ml, even at very low concentrations
Method: Using an alternative in-vitro motility technology, the effects of LST-002 on motility of a MDR P. aeruginosa (PA) strain (Ka02) was performed. In 10 cm plastic culture dishes, a 6 ml underlayer of 0.6% agar in LB was poured and allowed to solidify. During this period, 6 ml of LB was aliquoted into separate tubes to which LST-002 was added at final concentrations 80, 20, 5, 1.25, 0.3 and 0 μg/ml. Thereafter, 10 μA of bacterial culture (containing ˜20-100 cfu) was added followed by 6 mls of 0.6% agar in LB. This ˜12 ml solution was poured onto the solidified agar under-layer. Following solidification, a final upper layer comprising of 6 mls 0.6% agar in LB was added. Plates were transferred to an incubator at 37° C. for 18-22 hr to allow bacterial growth and swarming (i.e. motility) and the diameter of the bacterial colonies measured.

MDR PA strain Ka02 = assay: Neutropenic mouse thigh muscle infection model; assay type: in vivo, CD-1 mice
Method: Female CD-1 mice weighing 23-27 g (3-5 weeks in age) were rendered neutropenic by split i.p. administration of cyclophosphamide at doses of 150 mg/kg and 100 mg/kg on days 0 and +3. On day 4, 50 μl of freshly-grown Ka02 (2×10^7 cfu's per ml) was injected at a depth of 5 mm into the right thigh muscle (“ipsilateral”) whereas an equivalent volume of saline was injected into the left thigh muscle (“contralateral”). Over an ensuing 3 day period (days 5-7, i.e. 24, 48 and 72 hr following Ka02 administration), the surface areas of the infected thigh muscle lesions were measured with calipers in both ipsilateral and contralateral muscles. Ratios of surface areas of infection lesions of ipsilateral muscles divided by contralateral muscle lesions were calculated with ratios >1 indicative of Ka02. This calculation is called the Ratio-Infection Index (RII). In some mice, LST-002 was administered i.v. at 20 mg/kg, 60 min after administration of Ka02. Further dosing of LST-002 (10 mg/kg) was given i.p. at time points+5 hr, +24 hr and +48 hr after infection.

laboratory strain Pa01 = assay: "Sandwich" motility assay, Pa01; assay type: cell-based, P. aeruginosa; conditions: LST-002 0.3-80 μg/ml, even at very low concentrations
[4] = tested on: P. Aeruginosa strains harboring flagellin type B (Pa01, Ka01, Ka02, Ka03, Ka04, 25619, NCTC 10662); assay: Whole-bacteria binding ELISA, flagellin type B strains; conditions: LST-007 supernatant, LST-008 0.5 μg/ml
Method: P. aeruginosa laboratory strains PAK (flagellin type A) and Pa01 (flagellin type B) were grown overnight, diluted to an OD of 0.3 and washed with PBS. Fifty μl bacteria were then plated onto ELISA plates pre-coated with 50 μl poly-L-lysine (1 μg/ml in PBS) which were blocked with PBS-10% fetal calf serum (FCS). Following overnight incubation with bacteria at 4° C., plates were washed with 0.9% saline-0.05% Tween-20 and incubated with 1:2 dilutions of LST-001, LST-002, LST-007 supernatant or purified LST-003 (˜2 μg/ml) for 2 hrs at room temperature. Following washing, secondary goat anti-mouse (LST-001, LST-002) or goat anti-human detecting antibodies (LST-003, LST-007) were added and coloration generated following the addition of TMB substrate and plates read for absorbance (405 nm) following addition of 10% H2SO4.

[5] = tested on: P. Aeruginosa flagellin type A strain 27853; conditions: ELISA, LST-007 supernatant, LST-008 0.5 μg/ml
[6] = read-out: MIC site #1, heading: MIC site #1, Ka02, Vitek, testing site #1
[7] = read-out: MIC site #2, heading: MIC site #2, Ka02, Vitek, testing site #2
[8] = ipsilateral/contralateral lesion area, 20 mg/kg i.v. +60 min, 10 mg/kg i.p. +5, +24, +48 hr

NCC[C@H](O)C(=O)N[C@@H]1C[C@H](N)[C@@H](O[C@H]2O[C@H](CN)[C@@H](O)[C@H](O)[C@H]2O)[C@H](O)[C@H]1O[C@H]1O[C@H](CO)[C@@H](O)[C@H](N)[C@H]1O [Amikacin]
Final (sensitive/resistant call) ([1]; Ka02): S
Vitek (sensitive/resistant call) ([1]; Ka02): S/S

C[C@H]1[C@H](NC(=O)/C(=N\OC(C)(C)C(=O)O)c2csc(N)n2)C(=O)N1S(=O)(=O)O [Aztreonam]
Final (sensitive/resistant call) ([1]; Ka02): R
Vitek (sensitive/resistant call) ([1]; Ka02): R

CO/N=C(\C(=O)N[C@@H]1C(=O)N2C(C(=O)[O-])=C(C[N+]3(C)CCCC3)CS[C@H]12)c1csc(N)n1 [Cefepime]
Final (sensitive/resistant call) ([1]; Ka02): R
Vitek (sensitive/resistant call) ([1]; Ka02): R/R

CO/N=C(\C(=O)N[C@@H]1C(=O)N2C(C(=O)O)=C(COC(C)=O)CS[C@H]12)c1csc(N)n1 [Cefotaxime]
Final (sensitive/resistant call) ([1]; Ka02): R
Vitek (sensitive/resistant call) ([1]; Ka02): R/R

CC(C)(O/N=C(\C(=O)N[C@@H]1C(=O)N2C(C(=O)[O-])=C(C[n+]3ccccc3)CS[C@H]12)c1csc(N)n1)C(=O)O [Ceftazidime]
Final (sensitive/resistant call) ([1]; Ka02): S-R
Vitek (sensitive/resistant call) ([1]; Ka02): S/R
MIC [1, 6]: 8 µg/mL (≈ 14.6 µM)

O=C(N[C@H](CO)[C@H](O)c1ccc([N+](=O)[O-])cc1)C(Cl)Cl [Chloramphenicol]
Final (sensitive/resistant call) ([1]; Ka02): R
Vitek (sensitive/resistant call) ([1]; Ka02): R

O=C(O)c1cn(C2CC2)c2cc(N3CCNCC3)c(F)cc2c1=O [Ciprofloxacin]
Final (sensitive/resistant call) ([1]; Ka02): R
Vitek (sensitive/resistant call) ([1]; Ka02): R/R
MIC [1, 6]: 4 µg/mL (≈ 12.1 µM)
MIC [1, 7]: ≥ 4 µg/mL

C[C@@H](O)[C@H]1C(=O)N2C(C(=O)O)=C(SCCN=CN)C[C@H]12 [Imipenem]
Final (sensitive/resistant call) ([1]; Ka02): R
Vitek (sensitive/resistant call) ([1]; Ka02): R
Animal survival at day 3 (Ka02 (MDR P. aeruginosa)): 30%
survivors at day 3 (Ka02 (MDR P. aeruginosa)): 6/20

C[C@H]1COc2c(N3CCN(C)CC3)c(F)cc3c(=O)c(C(=O)O)cn1c23 [Levofloxacin]
Final (sensitive/resistant call) ([1]; Ka02): R
Vitek (sensitive/resistant call) ([1]; Ka02): R
MIC [1, 7]: ≥ 8 µg/mL

C[C@@H](O)[C@H]1C(=O)N2C(C(=O)O)=C(S[C@@H]3CN[C@H](C(=O)N(C)C)C3)[C@H](C)[C@H]12 [Meropenem]
Final (sensitive/resistant call) ([1]; Ka02): R
Vitek (sensitive/resistant call) ([1]; Ka02): R/R

CN(C)c1ccc(O)c2c1C[C@H]1C[C@H]3[C@H](N(C)C)C(O)=C(C(N)=O)C(=O)[C@@]3(O)C(O)=C1C2=O [Minocycline]
Final (sensitive/resistant call) ([1]; Ka02): R

CCN1CCN(C(=O)N[C@@H](C(=O)N[C@@H]2C(=O)N3[C@@H]2SC(C)(C)[C@@H]3C(=O)O)c2ccccc2)C(=O)C1=O [Piperacillin]
Final (sensitive/resistant call) ([1]; Ka02): R
Vitek (sensitive/resistant call) ([1]; Ka02): R

CN(C)c1cc(NC(=O)CNC(C)(C)C)c(O)c2c1C[C@H]1C[C@H]3[C@H](N(C)C)C(O)=C(C(N)=O)C(=O)[C@@]3(O)C(O)=C1C2=O [Tigecycline]
Final (sensitive/resistant call) ([1]; Ka02): R
Vitek (sensitive/resistant call) ([1]; Ka02): R
MIC ([1]; read-out: MIC site #2): ≥ 8 µg/mL

NC[C@H]1O[C@H](O[C@H]2[C@H](O)[C@@H](O[C@H]3O[C@H](CO)[C@@H](O)[C@H](N)[C@H]3O)[C@H](N)C[C@@H]2N)[C@H](N)C[C@@H]1O [Tobramycin]
Final (sensitive/resistant call) ([1]; Ka02): R
Vitek (sensitive/resistant call) ([1]; Ka02): R/I
MIC [1, 7]: 8 µg/mL (≈ 17.1 µM)

Amoxicillin/Calvulanic acid
Final (sensitive/resistant call) ([1]; Ka02): R
MIC site #2 ([1]; Ka02, Vitek, testing site #2): 32
Vitek (sensitive/resistant call) ([1]; Ka02): R

Ampicillin/Sulbactam
Final (sensitive/resistant call) ([1]; Ka02): R
Vitek (sensitive/resistant call) ([1]; Ka02): R/R

Colistin
Final (sensitive/resistant call) ([1]; Ka02): S
MIC site #2 ([1]; Ka02, Vitek, testing site #2): 2
Vitek (sensitive/resistant call) ([1]; Ka02): S

Gentamicin
MIC site #2 ([1]; Ka02, Vitek, testing site #2): 4
Vitek (sensitive/resistant call) ([1]; Ka02): R/S

Piperacillin/Tazobactam
Final (sensitive/resistant call) ([1]; Ka02): R
Vitek (sensitive/resistant call) ([1]; Ka02): R/R

Ticracillin/CA
Final (sensitive/resistant call) ([1]; Ka02): R
Vitek (sensitive/resistant call) ([1]; Ka02): R

Trimethoprim-Sulfamethoxazole
Final (sensitive/resistant call) ([1]; Ka02): R
Vitek (sensitive/resistant call) ([1]; Ka02): R/R

B1: LST-002: mouse monoclonal antibody of U.S. Pat. No. 4,834,976, specific to P. aeruginosa flagellin type B (antibody, V domains shown)
VH: EVMLVESGGGLVKPGGSLKLSCAASGFTFSTFTMSWVRQTPEKRLECVATINGGGGNTYYPDSVKGRFTISRDNAKNNLYLQMSSLRSEDTAFYFCSRLYGIYAMDYWGQGTSVTVSS
VL: MKSHTQVFVYMLLWLSGVEGDIVMTQSHIFMSTSVGDRVSITCKASQDVGSAVAWYQQKPGQSPKVLIYWTSTRHTGVPDRFAGSGSGTEFTLTISNVQSEDLADYFCQQYSSYPLTFGAGTKLELKR
early plasma concentration [2]: ~200 µg/mL
size of bacterial colonies (motility) [3]: significant reduction in the size of bacterial colonies
Ratio-Infection Index (RII) day 5 (MDR PA strain Ka02; [8]): 1.09
Ratio-Infection Index (RII) day 7 (MDR PA strain Ka02; [8]): 0.96
infection lesions in thigh muscle infected with Ka02 (MDR PA strain Ka02; neutropenic mice): totally prevented infection lesions
size of bacterial colonies (motility) (laboratory strain Pa01): significant reduction in the size of bacterial colonies
Animal survival at day 3 (Ka02 (MDR P. aeruginosa)): 71.4%
increased survival as compared with untreated mice (Ka02 (MDR P. aeruginosa); day 3 / day 9 survival): 700%
more efficacious in increasing survival than currently accepted treatment protocol (imipenem) (Ka02 (MDR P. aeruginosa); day 3 / day 9 survival): 240%
survivors at day 3 (Ka02 (MDR P. aeruginosa)): 15/21

B2: LST-007: human IgM monoclonal antibody of U.S. Pat. No. 4,834,976, specific to P. aeruginosa flagellin type B (antibody, V domains shown)
VH: MDWTWRVFFLLAVAPGAHSQVRLVQSGTEVKKPGASVRVSCKASGYTFSNYYMYWVRQAPGQGLEWMAMINPSGGSTRYAQKFQGRVTMTRDTSTSTVYMELSSLRSEDTAVYYCARADSGSYFGYWGQGTLVTVSS
VL: MRVPAQLLGLLLLWLPGARCDIQLTQSPSFLSASVGDRVPITCRASQGISTHLAWYQQKPGKAPKLLIYAASTLQSGVPSRFSGSGSGTEFTLTISSLQPEDSATYYCQQLKSYPLTFGGGTKVEIKR
binding to whole bacteria harboring flagellin type B [4]: specifically binds to all seven P. Aeruginosa bacteria strains tested
binding to whole bacteria harboring flagellin type A [5]: not flagellin type A
